Results published in PMC12548092, “Exploring Helical Fraying Linked to Dynamics and Catalysis in Adenylate Kinase” (Biochemistry, 2025).

Target: T1, hAK1 (Homo sapiens, UniProt P00568)
T1 construct: gene AK1; pET24d, E. coli BL21 (DE3), Blue Sepharose and size exclusion; 15N/13C-labelled
T1 sequence (P00568 1-194): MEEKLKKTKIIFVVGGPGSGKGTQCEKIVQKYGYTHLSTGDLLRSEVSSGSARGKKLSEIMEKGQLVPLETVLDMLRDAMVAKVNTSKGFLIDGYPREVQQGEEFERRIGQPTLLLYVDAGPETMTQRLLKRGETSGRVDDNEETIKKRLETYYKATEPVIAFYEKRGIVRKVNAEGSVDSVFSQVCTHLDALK
Experiment: NMR backbone assignment and […] relaxation order parameters
Type: binding
Conditions: 30 mM MES, 50 mM NaCl, pH 5.5 (assignment), 298 K

## Nc1ncnc2c1ncn2[C@@H]1O[C@H](COP(=O)(O)OP(=O)(O)OP(=O)(O)OP(=O)(O)OP(=O)(O)OC[C@H]2O[C@@H](n3cnc4c(N)ncnc43)[C@H](O)[C@@H]2O)[C@@H](O)[C@H]1O [Ap5A]
  NMR backbone assignment and 15N relaxation order parameters: one helical turn in the α-helix at the N-terminus of the catalytic loop
